{"source": "paper PMC9133015", "about": "(Nature Communications, 2022)", "key": {"DU145 cells [1]": {"tested_on": "DU145 cells", "test": "Transcriptome-wide RNA-sequencing", "type": "cell-based, human", "details": "DU145, YK-2-69 3 µM 48 h vs DMSO"}, "RWPE-1 cells": {"tested_on": "RWPE-1 cells", "test": "Anti-proliferation activity assay (CCK8, 72 h)", "type": "cell-based", "details": "for Relative proliferation rate (%) mean / Relative proliferation rate (%) / optical density: RWPE1; for Relative proliferation rate (%) / optical density: replicates"}, "PC-3 cells": {"tested_on": "PC-3 cells", "test": "Cell growth assay (5-day course)", "type": "cell-based, human", "details": "for Relative proliferation rate mean / Relative proliferation rate / optical density: PC-3; for Relative proliferation rate / optical density: replicates"}, "DU145 cells [2]": {"tested_on": "DU145 cells", "test": "Cell growth assay (5-day course)", "type": "cell-based, human"}}, "note": "Values joined by “and” are separate entries in the source; they are usually repeats but may differ in a detail not shown here. Identical values can stand only once.", "data": [{"smiles": "CCN1CCN(C(=O)c2ccc(Nc3ncc(F)c(-c4ccc5nc(N(C)C)sc5c4)n3)nc2)CC1", "note": "[YK-2-69]", "values": [{"measurement": "log2(fc) KLF6 (ENSG00000067082)", "setting": "DU145 cells [1]", "value": -1}, {"measurement": "log2(fc) MT-ND6 (ENSG00000198695)", "setting": "DU145 cells [1]", "value": 1.099}, {"measurement": "log2(fc) PLK2 (ENSG00000145632)", "setting": "DU145 cells [1]", "value": -1.04}, {"measurement": "log2(fc) TAGLN (ENSG00000149591)", "setting": "DU145 cells [1]", "value": -2.064}, {"measurement": "Relative proliferation rate (%) mean", "setting": "RWPE-1 cells; 0.078 uM", "value": 1.172, "unit": "%"}, {"measurement": "Relative proliferation rate (%)", "setting": "RWPE-1 cells; 0.078 uM", "value": "1.172% and 0.4794% and 1.866%"}, {"measurement": "optical density", "setting": "RWPE-1 cells; 0.078 uM", "value": "1.096 and 1.038 and 1.052"}, {"measurement": "Relative proliferation rate (%) mean", "setting": "RWPE-1 cells; 0.3125 uM", "value": 5.563, "unit": "%"}, {"measurement": "Relative proliferation rate (%)", "setting": "RWPE-1 cells; 0.3125 uM", "value": "5.591% and 3.3557% and 7.743%"}, {"measurement": "optical density", "setting": "RWPE-1 cells; 0.3125 uM", "value": "1.047 and 1.008 and 0.989"}, {"measurement": "Relative proliferation rate (%) mean", "setting": "RWPE-1 cells; 1.25 uM", "value": 13.0424, "unit": "%"}, {"measurement": "Relative proliferation rate (%)", "setting": "RWPE-1 cells; 1.25 uM", "value": "13.0748% and 7.862% and 18.1903%"}, {"measurement": "optical density", "setting": "RWPE-1 cells; 1.25 uM", "value": "0.964 and 0.961 and 0.877"}, {"measurement": "Relative proliferation rate (%) mean", "setting": "RWPE-1 cells; 5 uM", "value": 20.9606, "unit": "%"}, {"measurement": "Relative proliferation rate (%)", "setting": "RWPE-1 cells; 5 uM", "value": "21.0099% and 16.7785% and 25.0933%"}, {"measurement": "optical density", "setting": "RWPE-1 cells; 5 uM", "value": "0.876 and 0.868 and 0.803"}, {"measurement": "Relative proliferation rate (%) mean", "setting": "RWPE-1 cells; 20 uM", "value": 54.7483, "unit": "%"}, {"measurement": "Relative proliferation rate (%)", "setting": "RWPE-1 cells; 20 uM", "value": "54.734% and 48.1304% and 61.3806%"}, {"measurement": "optical density", "setting": "RWPE-1 cells; 20 uM", "value": "0.502 and 0.541 and 0.414"}, {"measurement": "Relative proliferation rate (%) mean", "setting": "RWPE-1 cells; 80 uM", "value": 72.5701, "unit": "%"}, {"measurement": "Relative proliferation rate (%)", "setting": "RWPE-1 cells; 80 uM", "value": "72.5879% and 64.5254% and 80.597%"}, {"measurement": "optical density", "setting": "RWPE-1 cells; 80 uM", "value": "0.304 and 0.37 and 0.208"}, {"measurement": "inhibitory activity against proliferation (in words)", "setting": "RWPE-1 cells; RWPE-1 cells", "value": "weak inhibitory activity"}, {"measurement": "Relative proliferation rate mean", "setting": "PC-3 cells; 1 µM, day 0", "value": 1}, {"measurement": "Relative proliferation rate", "setting": "PC-3 cells; 1 µM, day 0", "value": 1}, {"measurement": "optical density", "setting": "PC-3 cells; 1 µM, day 0", "value": 0.270}, {"measurement": "Relative proliferation rate mean", "setting": "PC-3 cells; 1 µM, day 1", "value": 1.314}, {"measurement": "Relative proliferation rate", "setting": "PC-3 cells; 1 µM, day 1", "value": "1.339 and 1.335 and 1.268"}, {"measurement": "optical density", "setting": "PC-3 cells; 1 µM, day 1", "value": "0.361 and 0.36 and 0.342"}, {"measurement": "Relative proliferation rate mean", "setting": "PC-3 cells; 1 µM, day 2", "value": 1.774}, {"measurement": "Relative proliferation rate", "setting": "PC-3 cells; 1 µM, day 2", "value": "1.713 and 1.81 and 1.799"}, {"measurement": "optical density", "setting": "PC-3 cells; 1 µM, day 2", "value": "0.462 and 0.488 and 0.485"}, {"measurement": "Relative proliferation rate mean", "setting": "PC-3 cells; 1 µM, day 3", "value": 3.173}, {"measurement": "Relative proliferation rate", "setting": "PC-3 cells; 1 µM, day 3", "value": "3.23 and 3.148 and 3.141"}, {"measurement": "optical density", "setting": "PC-3 cells; 1 µM, day 3", "value": "0.871 and 0.849 and 0.847"}, {"measurement": "Relative proliferation rate mean", "setting": "PC-3 cells; 1 µM, day 4", "value": 6.7021}, {"measurement": "Relative proliferation rate", "setting": "PC-3 cells; 1 µM, day 4", "value": "6.623 and 6.6712 and 6.812"}, {"measurement": "optical density", "setting": "PC-3 cells; 1 µM, day 4", "value": "1.786 and 1.799 and 1.837"}, {"measurement": "Relative proliferation rate mean", "setting": "PC-3 cells; 2 µM, day 0", "value": 1}, {"measurement": "Relative proliferation rate", "setting": "PC-3 cells; 2 µM, day 0", "value": 1}, {"measurement": "optical density", "setting": "PC-3 cells; 2 µM, day 0", "value": 0.273}, {"measurement": "Relative proliferation rate mean", "setting": "PC-3 cells; 2 µM, day 1", "value": 1.2692}, {"measurement": "Relative proliferation rate", "setting": "PC-3 cells; 2 µM, day 1", "value": "1.28 and 1.295 and 1.233"}, {"measurement": "optical density", "setting": "PC-3 cells; 2 µM, day 1", "value": "0.35 and 0.354 and 0.337"}, {"measurement": "Relative proliferation rate mean", "setting": "PC-3 cells; 2 µM, day 2", "value": 1.697}, {"measurement": "Relative proliferation rate", "setting": "PC-3 cells; 2 µM, day 2", "value": "1.752 and 1.668 and 1.672"}, {"measurement": "optical density", "setting": "PC-3 cells; 2 µM, day 2", "value": "0.479 and 0.456 and 0.457"}, {"measurement": "Relative proliferation rate mean", "setting": "PC-3 cells; 2 µM, day 3", "value": 2.625}, {"measurement": "Relative proliferation rate", "setting": "PC-3 cells; 2 µM, day 3", "value": "2.612 and 2.575 and 2.688"}, {"measurement": "optical density", "setting": "PC-3 cells; 2 µM, day 3", "value": "0.714 and 0.704 and 0.735"}, {"measurement": "Relative proliferation rate mean", "setting": "PC-3 cells; 2 µM, day 4", "value": 5.619}, {"measurement": "Relative proliferation rate", "setting": "PC-3 cells; 2 µM, day 4", "value": "5.662 and 5.571 and 5.625"}, {"measurement": "optical density", "setting": "PC-3 cells; 2 µM, day 4", "value": "1.548 and 1.523 and 1.538"}, {"measurement": "Relative proliferation rate mean", "setting": "PC-3 cells; 4 µM, day 0", "value": 1}, {"measurement": "Relative proliferation rate", "setting": "PC-3 cells; 4 µM, day 0", "value": 1}, {"measurement": "optical density", "setting": "PC-3 cells; 4 µM, day 0", "value": 0.274}, {"measurement": "Relative proliferation rate mean", "setting": "PC-3 cells; 4 µM, day 1", "value": 1.161}, {"measurement": "Relative proliferation rate", "setting": "PC-3 cells; 4 µM, day 1", "value": "1.103 and 1.191 (2×)"}, {"measurement": "optical density", "setting": "PC-3 cells; 4 µM, day 1", "value": "0.302 and 0.326 (2×)"}, {"measurement": "Relative proliferation rate mean", "setting": "PC-3 cells; 4 µM, day 2", "value": 1.646}, {"measurement": "Relative proliferation rate", "setting": "PC-3 cells; 4 µM, day 2", "value": "1.545 and 1.706 and 1.687"}, {"measurement": "optical density", "setting": "PC-3 cells; 4 µM, day 2", "value": "0.423 and 0.467 and 0.462"}, {"measurement": "Relative proliferation rate mean", "setting": "PC-3 cells; 4 µM, day 3", "value": 1.9905}, {"measurement": "Relative proliferation rate", "setting": "PC-3 cells; 4 µM, day 3", "value": "2.023 and 1.947 and 2.001"}, {"measurement": "optical density", "setting": "PC-3 cells; 4 µM, day 3", "value": "0.554 and 0.533 and 0.548"}, {"measurement": "Relative proliferation rate mean", "setting": "PC-3 cells; 4 µM, day 4", "value": 3.8824}, {"measurement": "Relative proliferation rate", "setting": "PC-3 cells; 4 µM, day 4", "value": "3.992 and 3.985 and 3.671"}, {"measurement": "optical density", "setting": "PC-3 cells; 4 µM, day 4", "value": "1.093 and 1.091 and 1.005"}, {"measurement": "cell proliferation, 5-day course/colony (in words)", "setting": "PC-3 cells; PC-3 cells, dose-dependent", "value": "significantly inhibited the cell proliferation"}, {"measurement": "Relative proliferation rate mean", "setting": "DU145 cells [2]; DU145, 4 μM, day 1", "value": 1.572}, {"measurement": "Relative proliferation rate mean", "setting": "DU145 cells [2]; DU145, 4 μM, day 2", "value": 2.148}, {"measurement": "Relative proliferation rate mean", "setting": "DU145 cells [2]; DU145, 4 μM, day 3", "value": 4.361}, {"measurement": "Relative proliferation rate mean", "setting": "DU145 cells [2]; DU145, 4 μM, day 4", "value": 5.61}, {"measurement": "Relative proliferation rate mean", "setting": "DU145 cells [2]; DU145, 8 μM, day 1", "value": 1.538}, {"measurement": "Relative proliferation rate mean", "setting": "DU145 cells [2]; DU145, 8 μM, day 2", "value": 2.008}, {"measurement": "Relative proliferation rate mean", "setting": "DU145 cells [2]; DU145, 8 μM, day 3", "value": 3.775}, {"measurement": "Relative proliferation rate mean", "setting": "DU145 cells [2]; DU145, 8 μM, day 4", "value": 4.448}, {"measurement": "Relative proliferation rate mean", "setting": "DU145 cells [2]; DU145, 12 μM, day 1", "value": 1.322}, {"measurement": "Relative proliferation rate mean", "setting": "DU145 cells [2]; DU145, 12 μM, day 2", "value": 1.207}, {"measurement": "Relative proliferation rate mean", "setting": "DU145 cells [2]; DU145, 12 μM, day 3", "value": 1.763}, {"measurement": "Relative proliferation rate mean", "setting": "DU145 cells [2]; DU145, 12 μM, day 4", "value": 2.506}]}]}
